Activity calls are given as the source filed them. No cut-off for these calls is given here.
Columns and labels:
[1] = tested on: C6; test: Effect on metabolic changes in rat C6 cells assessed as ratio of CoA to creatine at 10 uM after 24 hrs by NMR analysis; assay type: functional
[2] = tested on: C6; test: Effect on metabolic changes in rat C6 cells assessed as increase in choline signal at 10 uM after 48 hrs by NMR analysis; assay type: functional
[3] = tested on: C6; test: Induction of apoptosis in rat C6 cells assessed as DNA fragmentation at 80 uM after 19 hrs by electrophoresis; assay type: functional, cell-based
[4] = tested on: C6; test: Induction of apoptosis in rat C6 cells assessed as DNA fragmentation at 40 uM after 19 hrs by electrophoresis; assay type: functional, cell-based
[5] = tested on: C6; test: Cytotoxicity against rat C6 cells assessed as necrotic cells at 80 uM after 19 hrs; assay type: functional, cell-based
[6] = tested on: C6; test: Induction of apoptosis in rat C6 cells assessed inhibition of cell division; assay type: functional, cell-based
[7] = tested on: C6; test: Induction of apoptosis in rat C6 cells assessed cell death at > 40 uM; assay type: functional, cell-based

Q: Which results are given for CCCCCCCC/C=C\CCCCCCCCO[C@H]1O[C@H](CO)[C@@H](O)[C@H](O)[C@H]1NC(C)=O?
A: Ratio [1]: 0.32; Activity [2]: 2.47; Activity [3]: Active; Activity [4]: Active; Activity [5]: inactive; Activity [6]: Active; Activity [7]: Active
